Assay results: patent publication US20080009418A1, “Selective Inhibitors” (Alchemia LTD., priority 2004, published 2008)

Assays:
Conditions in all cases: compound at 10 μM
[1] = molecular target: T1, Human neuropeptide Y (NPY-Y1) (Homo sapiens, UniProt P25929); test: Radioligand binding, human neuropeptide Y NPY-Y1 membranes, FlashPlate, [125I]-PYY
T1 construct: purchased Perkin Elmer Biosignal
T1 sequence (P25929 1-384): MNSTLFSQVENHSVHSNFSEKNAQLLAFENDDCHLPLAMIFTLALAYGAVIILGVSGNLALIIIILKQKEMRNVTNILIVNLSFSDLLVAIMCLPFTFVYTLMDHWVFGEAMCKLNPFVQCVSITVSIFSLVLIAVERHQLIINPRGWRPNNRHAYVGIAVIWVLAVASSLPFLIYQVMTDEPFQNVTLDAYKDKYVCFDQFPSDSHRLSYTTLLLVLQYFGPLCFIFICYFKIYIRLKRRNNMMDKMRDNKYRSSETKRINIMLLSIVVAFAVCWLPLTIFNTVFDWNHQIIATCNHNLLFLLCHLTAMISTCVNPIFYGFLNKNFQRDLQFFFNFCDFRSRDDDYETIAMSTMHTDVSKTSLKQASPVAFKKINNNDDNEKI
Outline: (§1)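 Cloned human receptor membranes were coated onto FlashPlate wells and incubated with radioligand and compound (added from a 0.5 mM DMSO daughter plate) for 1 hour at room temperature in the dark. Scintillation counting gave percent inhibition, with DMSO defining total and reference ligand defining non-specific binding.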

Human neurokinin (NK1) = molecular target: T2, Human neurokinin (NK1) (Homo sapiens, UniProt P25103); test: Radioligand binding, human neurokinin NK1 membranes, filtration, [125I]-Substance P
T2 construct: purchased Perkin Elmer Biosignal
Outline: (§2)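 Membranes from cloned human receptors were incubated with compound and radioligand for 1 hour at room temperature. Bound ligand was collected on 0.3% PEI-soaked filters, washed with cold 50 mM Tris-HCl pH 7.4, and counted by scintillation. Percent inhibition was computed against DMSO totals and reference-ligand nonspecific wells.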

Human opioid (ORL1) = molecular target: T3, Human opioid (ORL1) (Homo sapiens, UniProt P41146); test: Radioligand binding, human opioid ORL1 membranes, FlashPlate, [125I]-Nociceptin
T3 construct: purchased Perkin Elmer Biosignal
Outline: as §1

Mouse urotensin (mUR2) = molecular target: T4, Mouse urotensin (mUR2) (Mus musculus, UniProt Q8VIH9); test: Radioligand binding, mouse urotensin mUR2 membranes, FlashPlate, [125I]-Urotensin II
T4 construct: purchased Perkin Elmer Biosignal
T4 sequence (Q8VIH9 1-385): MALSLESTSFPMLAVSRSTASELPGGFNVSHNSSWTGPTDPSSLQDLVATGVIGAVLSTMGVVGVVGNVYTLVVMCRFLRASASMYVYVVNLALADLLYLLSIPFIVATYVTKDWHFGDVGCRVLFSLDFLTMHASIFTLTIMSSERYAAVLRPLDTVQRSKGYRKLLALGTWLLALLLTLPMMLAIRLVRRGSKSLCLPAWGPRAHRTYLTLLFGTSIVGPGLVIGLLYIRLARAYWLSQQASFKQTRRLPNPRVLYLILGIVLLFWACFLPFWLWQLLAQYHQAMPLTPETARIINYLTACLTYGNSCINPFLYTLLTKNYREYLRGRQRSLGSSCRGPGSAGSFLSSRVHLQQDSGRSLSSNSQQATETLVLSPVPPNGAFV
Outline: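 Cloned mouse urotensin (mUR2) receptor membranes from Perkin Elmer Biosignal were immobilized in FlashPlate microplates using a proprietary coating. Each well got 19.5 μl buffer, then 0.5 μl of DMSO, reference ligand, or compound. Adding 5 μl of [125I]-Urotensin II, diluted to 5× final concentration in binding buffer, started binding. Plates were sealed with TopSeal-A and incubated 1 hour at room temperature in the dark. Wells were counted for 30 seconds each on a TopCount after a 60-second delay, and percentage inhibition was calculated.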

Human κ-Opioid (KOP) = molecular target: T5, Human κ-Opioid (KOP) (Homo sapiens, UniProt P41145); test: Radioligand binding, human κ-opioid (KOP) membranes, filtration, [3H]-Diprenorphine
T5 construct: purchased Perkin Elmer Biosignal
Outline: as §2

Human melanocortin (MC5) = molecular target: T6, Human melanocortin (MC5) (Homo sapiens, UniProt P33032); test: Radioligand binding, human melanocortin MC5 membranes, FlashPlate, [125I]-NDP-αMSH
T6 construct: purchased Perkin Elmer Biosignal
Outline: as §1

Human Melanocortin (MC4) = molecular target: T7, Human Melanocortin (MC4) (Homo sapiens, UniProt P32245); test: Radioligand binding, human melanocortin MC4 membranes, FlashPlate, [125I]-NDP-αMSH
T7 construct: purchased Perkin Elmer Biosignal
Outline: as §1

Human Melanocortin (MC3) = molecular target: T8, Human Melanocortin (MC3) (Homo sapiens, UniProt P41968); test: Radioligand binding, human melanocortin MC3 membranes, FlashPlate, [125I]-NDP-αMSH
T8 construct: purchased Perkin Elmer Biosignal
Outline: as §1

Human δ-opioid (DOP) = molecular target: T9, Human δ-opioid (DOP) (Homo sapiens, UniProt P41143); test: Radioligand binding, human δ-opioid (DOP) membranes, FlashPlate, [3H]-Bremazocine
T9 construct: purchased Perkin Elmer Biosignal
Outline: as §1

Human μ-opioid (MOP) = molecular target: T10, Human μ-opioid (MOP) (Homo sapiens, UniProt P35372); test: Radioligand binding, human μ-opioid (MOP) membranes, FlashPlate, [3H]-Naloxone
T10 construct: purchased Perkin Elmer Biosignal
Outline: as §1

[2] = molecular target: T11, Human melanin-concentrating hormone (MCH1) (Homo sapiens, UniProt Q99705); test: Radioligand binding, human melanin-concentrating hormone MCH1 membranes, FlashPlate, [125I]-S36057
T11 construct: purchased Perkin Elmer Biosignal
Outline: as §1

T5 sequence (P41145 whole entry): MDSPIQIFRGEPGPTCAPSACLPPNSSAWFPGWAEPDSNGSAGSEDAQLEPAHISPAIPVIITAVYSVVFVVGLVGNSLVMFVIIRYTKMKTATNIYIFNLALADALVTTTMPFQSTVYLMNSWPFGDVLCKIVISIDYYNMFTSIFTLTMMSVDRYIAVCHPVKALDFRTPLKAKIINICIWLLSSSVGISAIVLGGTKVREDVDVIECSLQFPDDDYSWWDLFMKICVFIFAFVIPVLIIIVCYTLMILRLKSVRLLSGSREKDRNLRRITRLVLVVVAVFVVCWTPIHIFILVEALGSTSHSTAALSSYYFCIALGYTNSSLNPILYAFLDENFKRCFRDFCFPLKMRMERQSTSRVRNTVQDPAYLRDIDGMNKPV
T10 sequence (P35372 whole entry): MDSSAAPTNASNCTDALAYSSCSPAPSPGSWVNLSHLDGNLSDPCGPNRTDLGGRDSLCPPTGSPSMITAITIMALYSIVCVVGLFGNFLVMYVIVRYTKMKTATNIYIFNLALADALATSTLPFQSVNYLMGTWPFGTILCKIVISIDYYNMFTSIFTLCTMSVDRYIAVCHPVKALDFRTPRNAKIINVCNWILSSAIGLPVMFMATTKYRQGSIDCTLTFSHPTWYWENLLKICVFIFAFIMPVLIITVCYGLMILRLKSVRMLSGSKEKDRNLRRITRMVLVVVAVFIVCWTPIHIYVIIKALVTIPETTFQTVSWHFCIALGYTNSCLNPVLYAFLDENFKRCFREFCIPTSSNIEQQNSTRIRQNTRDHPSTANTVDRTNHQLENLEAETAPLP
T7 sequence (P32245 whole entry): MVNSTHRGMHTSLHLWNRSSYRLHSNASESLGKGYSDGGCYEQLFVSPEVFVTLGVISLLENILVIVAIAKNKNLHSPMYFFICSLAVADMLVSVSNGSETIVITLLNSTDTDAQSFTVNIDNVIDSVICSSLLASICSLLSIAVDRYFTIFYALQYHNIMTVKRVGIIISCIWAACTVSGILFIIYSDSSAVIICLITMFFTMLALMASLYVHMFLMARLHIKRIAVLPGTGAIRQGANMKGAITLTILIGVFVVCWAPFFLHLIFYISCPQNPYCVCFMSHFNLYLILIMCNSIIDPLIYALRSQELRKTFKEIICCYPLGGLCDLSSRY
T11 sequence (Q99705 whole entry): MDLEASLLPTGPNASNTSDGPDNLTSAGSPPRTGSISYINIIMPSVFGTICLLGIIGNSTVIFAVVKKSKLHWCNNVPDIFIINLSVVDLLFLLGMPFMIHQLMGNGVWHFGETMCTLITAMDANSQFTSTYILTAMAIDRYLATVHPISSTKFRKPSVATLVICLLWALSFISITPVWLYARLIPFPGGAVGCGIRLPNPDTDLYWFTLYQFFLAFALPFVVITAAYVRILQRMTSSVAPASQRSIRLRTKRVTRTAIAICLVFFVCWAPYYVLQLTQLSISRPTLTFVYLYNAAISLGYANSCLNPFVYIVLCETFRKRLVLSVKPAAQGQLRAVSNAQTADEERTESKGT
T2 sequence (P25103 whole entry): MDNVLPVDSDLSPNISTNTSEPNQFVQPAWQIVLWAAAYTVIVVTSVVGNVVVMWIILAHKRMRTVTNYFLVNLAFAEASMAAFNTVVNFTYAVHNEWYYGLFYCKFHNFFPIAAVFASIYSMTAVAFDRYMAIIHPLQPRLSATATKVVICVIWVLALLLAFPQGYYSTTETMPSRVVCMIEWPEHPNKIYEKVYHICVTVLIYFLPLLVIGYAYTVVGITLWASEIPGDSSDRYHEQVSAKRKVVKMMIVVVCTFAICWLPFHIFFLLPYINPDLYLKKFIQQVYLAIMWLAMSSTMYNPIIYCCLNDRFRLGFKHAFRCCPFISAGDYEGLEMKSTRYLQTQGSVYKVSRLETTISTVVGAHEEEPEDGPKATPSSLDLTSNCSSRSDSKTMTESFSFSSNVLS
T8 sequence (P41968 whole entry): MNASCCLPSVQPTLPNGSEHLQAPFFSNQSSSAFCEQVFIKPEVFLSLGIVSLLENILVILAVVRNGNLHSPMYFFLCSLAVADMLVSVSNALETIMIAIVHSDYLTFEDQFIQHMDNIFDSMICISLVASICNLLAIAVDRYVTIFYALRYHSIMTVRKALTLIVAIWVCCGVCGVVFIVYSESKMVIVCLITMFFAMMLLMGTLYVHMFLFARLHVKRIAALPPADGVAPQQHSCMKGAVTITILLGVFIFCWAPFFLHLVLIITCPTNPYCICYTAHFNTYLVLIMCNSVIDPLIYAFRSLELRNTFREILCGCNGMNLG
T9 sequence (P41143 whole entry): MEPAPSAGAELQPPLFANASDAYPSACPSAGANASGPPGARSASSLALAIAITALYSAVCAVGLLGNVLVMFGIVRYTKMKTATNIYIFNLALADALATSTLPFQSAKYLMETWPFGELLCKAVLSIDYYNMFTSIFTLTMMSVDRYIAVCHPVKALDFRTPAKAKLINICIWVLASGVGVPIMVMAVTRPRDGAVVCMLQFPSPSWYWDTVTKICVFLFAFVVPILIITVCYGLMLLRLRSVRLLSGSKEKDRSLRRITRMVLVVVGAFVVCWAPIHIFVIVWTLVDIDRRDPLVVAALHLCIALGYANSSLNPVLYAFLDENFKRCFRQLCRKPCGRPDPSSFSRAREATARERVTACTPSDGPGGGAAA
T6 sequence (P33032 whole entry): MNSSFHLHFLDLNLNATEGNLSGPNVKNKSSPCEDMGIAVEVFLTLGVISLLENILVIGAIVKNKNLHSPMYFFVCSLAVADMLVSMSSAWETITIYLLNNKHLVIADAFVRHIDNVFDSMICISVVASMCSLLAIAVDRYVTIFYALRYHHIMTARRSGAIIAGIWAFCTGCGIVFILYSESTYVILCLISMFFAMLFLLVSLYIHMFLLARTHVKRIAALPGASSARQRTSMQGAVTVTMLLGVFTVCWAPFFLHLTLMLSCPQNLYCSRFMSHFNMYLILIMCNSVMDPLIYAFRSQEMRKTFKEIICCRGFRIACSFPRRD
T3 sequence (P41146 whole entry): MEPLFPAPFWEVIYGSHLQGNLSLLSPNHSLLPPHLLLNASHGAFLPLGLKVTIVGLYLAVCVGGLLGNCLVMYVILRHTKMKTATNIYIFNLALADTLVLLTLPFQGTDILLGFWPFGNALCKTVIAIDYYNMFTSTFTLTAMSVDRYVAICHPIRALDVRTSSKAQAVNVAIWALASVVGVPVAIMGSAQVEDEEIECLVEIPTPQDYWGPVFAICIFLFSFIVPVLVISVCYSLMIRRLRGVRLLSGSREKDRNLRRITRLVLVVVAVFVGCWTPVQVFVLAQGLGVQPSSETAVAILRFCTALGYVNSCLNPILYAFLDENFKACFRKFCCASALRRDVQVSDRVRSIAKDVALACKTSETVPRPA

COC[C@H]1OC(OCc2ccc(-c3ccccc3)cc2)[C@H](NC(=O)CCCN)[C@@H](OCc2ccc(Cl)cc2)[C@@H]1O (stereo partly drawn) [compound 12]
A9 radioligand binding inhibition ([1]; human NPY-Y1 membranes): − (“−” indicates less than 50% inhibition at 10 μM)
A8 radioligand binding inhibition (Human neurokinin (NK1); human neurokinin NK1 membranes): + (“+” indicates greater than 50% inhibition at 10 μM)
A10 radioligand binding inhibition (Human opioid (ORL1); human ORL1 membranes): − (“−” indicates less than 50% inhibition at 10 μM)
A11 radioligand binding inhibition (Mouse urotensin (mUR2); mouse urotensin mUR2 membranes): − (“−” indicates less than 50% inhibition at 10 μM)
A2 radioligand binding inhibition (Human κ-Opioid (KOP); human κ-opioid (KOP) membranes): − (“−” indicates less than 50% inhibition at 10 μM)
A5 radioligand binding inhibition (Human melanocortin (MC5); human melanocortin MC5 membranes): − (“−” indicates less than 50% inhibition at 10 μM)
A4 radioligand binding inhibition (Human Melanocortin (MC4); human melanocortin MC4 membranes): − (“−” indicates less than 50% inhibition at 10 μM)
A3 radioligand binding inhibition (Human Melanocortin (MC3); human melanocortin MC3 membranes): − (“−” indicates less than 50% inhibition at 10 μM)
A1 radioligand binding inhibition (Human δ-opioid (DOP); human δ-opioid (DOP) membranes): − (“−” indicates less than 50% inhibition at 10 μM)
A7 radioligand binding inhibition (Human μ-opioid (MOP); human μ-opioid (MOP) membranes): − (“−” indicates less than 50% inhibition at 10 μM)
A6 radioligand binding inhibition ([2]; human MCH1 membranes): − (“−” indicates less than 50% inhibition at 10 μM)

CO[C@H]1[C@H](O)[C@@H](COCc2cccc(O)c2)OC(OCCc2ccccc2)[C@@H]1NC(=O)CCNC(=N)N (stereo partly drawn) [compound 159]
A9 radioligand binding, percentage inhibition ([1]; [125I]-PYY): − (“−” indicates less than 50% inhibition at 10 μM)
A8 radioligand binding, percentage inhibition (Human neurokinin (NK1); [125I]-Substance P): + (“+” indicates greater than 50% inhibition at 10 μM)
A10 radioligand binding, percentage inhibition (Human opioid (ORL1); [125I]-Nociceptin): − (“−” indicates less than 50% inhibition at 10 μM)
A11 radioligand binding, percentage inhibition (Mouse urotensin (mUR2); [125I]-Urotensin II): − (“−” indicates less than 50% inhibition at 10 μM)
A2 radioligand binding, percentage inhibition (Human κ-Opioid (KOP); [3H]-Diprenorphine): − (“−” indicates less than 50% inhibition at 10 μM)
A5 radioligand binding, percentage inhibition (Human melanocortin (MC5); [125I]-NDP-αMSH): − (“−” indicates less than 50% inhibition at 10 μM)
A4 radioligand binding, percentage inhibition (Human Melanocortin (MC4); [125I]-NDP-αMSH): − (“−” indicates less than 50% inhibition at 10 μM)
A3 radioligand binding, percentage inhibition (Human Melanocortin (MC3); [125I]-NDP-αMSH): − (“−” indicates less than 50% inhibition at 10 μM)
A1 radioligand binding, percentage inhibition (Human δ-opioid (DOP); [3H]-Bremazocine): − (“−” indicates less than 50% inhibition at 10 μM)
A7 radioligand binding, percentage inhibition (Human μ-opioid (MOP); [3H]-Naloxone): − (“−” indicates less than 50% inhibition at 10 μM)
A6 radioligand binding, percentage inhibition ([2]; [125I]-S36057): − (“−” indicates less than 50% inhibition at 10 μM)

N=C(N)NCC(=O)N[C@H]1C(OCc2ccc(Cl)cc2)O[C@H](COCc2ccc(Cl)cc2)[C@@H](O)[C@@H]1OCc1ccc(Cl)cc1 (stereo partly drawn) [compound 511]
A9: inhibition of radioligand binding, human neuropeptide Y (NPY-Y1) ([1]; [125I]-PYY): − (“−” indicates less than 50% inhibition at 10 μM)
A8: inhibition of radioligand binding, human neurokinin (NK1) (Human neurokinin (NK1); [125I]-Substance P): + (“+” indicates greater than 50% inhibition at 10 μM)
A10: inhibition of radioligand binding, human opioid (ORL1) (Human opioid (ORL1); [125I]-Nociceptin): + (“+” indicates greater than 50% inhibition at 10 μM)
A11: inhibition of radioligand binding, mouse urotensin (mUR2) (Mouse urotensin (mUR2); [125I]-Urotensin II): − (“−” indicates less than 50% inhibition at 10 μM)
A2: inhibition of radioligand binding, human κ-opioid (KOP) (Human κ-Opioid (KOP); [3H]-Diprenorphine): − (“−” indicates less than 50% inhibition at 10 μM)
A5: inhibition of radioligand binding, human melanocortin (MC5) (Human melanocortin (MC5); [125I]-NDP-αMSH): + (“+” indicates greater than 50% inhibition at 10 μM)
A4: inhibition of radioligand binding, human melanocortin (MC4) (Human Melanocortin (MC4); [125I]-NDP-αMSH): + (“+” indicates greater than 50% inhibition at 10 μM)
A3: inhibition of radioligand binding, human melanocortin (MC3) (Human Melanocortin (MC3); [125I]-NDP-αMSH): + (“+” indicates greater than 50% inhibition at 10 μM)
A1: inhibition of radioligand binding, human δ-opioid (DOP) (Human δ-opioid (DOP); [3H]-Bremazocine): − (“−” indicates less than 50% inhibition at 10 μM)
A7: inhibition of radioligand binding, human μ-opioid (MOP) (Human μ-opioid (MOP); [3H]-Naloxone): + (“+” indicates greater than 50% inhibition at 10 μM)
A6: inhibition of radioligand binding, human melanin-concentrating hormone (MCH1) ([2]; [125I]-S36057): + (“+” indicates greater than 50% inhibition at 10 μM)
